Results published in patent US5462935A, “Cephalosporin compounds” (Lucky Limited, priority 1990, dated 1995).
Converted amounts (≈) assume the structure as drawn. Like-named read-outs stand apart in the source and are kept apart here.

Columns and labels:
ATCC 12228 = assay: minimal inhibitory concentration, two-fold agar dilution; type: cell-based; conditions: Staphylococcus faecalis, ATCC12228, 20 h
In short: (§1)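 Each strain, prepared at 10^7 CFU/ml, was inoculated onto Mueller-Hinton agar with a two-fold compound dilution series; growth was assessed following 20 hours' incubation at 37° C.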

[1] = tested on: Acinetobacter calcoaceticus ATCC 15473; assay: as above; type: cell-based; conditions: ATCC15473, Muller-Hinton agar, 37° C., 20 hours
In short: as §1

[2] = tested on: Bacillus cereus ATCC 11778; assay: as above; type: cell-based; conditions: Bacillus cereus, ATCC11778, 20 h
In short: as §1

[3] = tested on: Bacillus megaterium ATCC 9885; assay: as above; type: cell-based; conditions: Priestia megaterium, ATCC9885, 20 h
In short: as §1

[4] = tested on: Citrobacter freundii ATCC 8090; assay: as above; type: cell-based; conditions: ATCC8090, Muller-Hinton agar, 37° C., 20 hours
In short: as §1

[5] = tested on: Enterobacter aerogenes ATCC 29751; assay: as above; type: cell-based; conditions: Klebsiella aerogenes, ATCC29751, 20 h
In short: as §1

[6] = tested on: Enterobacter cloacae ATCC 27508; assay: as above; type: cell-based; conditions: ATCC27508, Muller-Hinton agar, 37° C., 20 hours
In short: as §1

[7] = tested on: Escherichia coli ATCC 10536; assay: as above; type: cell-based; conditions: ATCC10536, Muller-Hinton agar, 37° C., 20 hours
In short: as §1

[8] = tested on: Escherichia coli ATCC 25922; assay: as above; type: cell-based; conditions: ATCC25922, Muller-Hinton agar, 37° C., 20 hours
In short: as §1

[9] = tested on: Klebsiella pneumoniae ATCC 10031; assay: as above; type: cell-based; conditions: ATCC10031, Muller-Hinton agar, 37° C., 20 hours
In short: as §1

[10] = tested on: Micrococcus luteus ATCC 9341; assay: as above; type: cell-based; conditions: ATCC9341, Muller-Hinton agar, 37° C., 20 hours
In short: as §1

[11] = tested on: Morganella morganii ATCC 8076h; assay: as above; type: cell-based; conditions: ATCC8076H, 20 h
In short: as §1

[12] = tested on: Proteus mirabilis ATCC 25933; assay: as above; type: cell-based; conditions: ATCC25933, Muller-Hinton agar, 37° C., 20 hours
In short: as §1

[13] = tested on: Proteus vulgaris ATCC 6059; assay: as above; type: cell-based; conditions: ATCC6059, Muller-Hinton agar, 37° C., 20 hours
In short: as §1

[14] = tested on: Providencia rettgeri ATCC 9250; assay: as above; type: cell-based; conditions: ATCC9250, Muller-Hinton agar, 37° C., 20 hours
In short: as §1

[15] = tested on: Pseudomonas aeruginosa ATCC 25619; assay: as above; type: cell-based; conditions: ATCC25619, Muller-Hinton agar, 37° C., 20 hours
In short: as §1

[16] = tested on: Pseudomonas aerugionsa ATCC 10145; assay: as above; type: cell-based; conditions: ATCC10145, Muller-Hinton agar, 37° C., 20 hours
In short: as §1

[17] = tested on: Pseudomonas aerugionsa ATCC 27853; assay: as above; type: cell-based; conditions: ATCC27853, Muller-Hinton agar, 37° C., 20 hours
In short: as §1

[18] = tested on: Salmonella typhimurium ATCC 14028; assay: as above; type: cell-based; conditions: Salmonella enterica, Muller-Hinton agar, 37° C., 20 hours
In short: as §1

[19] = tested on: Serratia marcescens ATCC 27117; assay: as above; type: cell-based; conditions: ATCC27117, Muller-Hinton agar, 37° C., 20 hours
In short: as §1

[20] = tested on: Shigella flexneri ATCC 11836; assay: as above; type: cell-based; conditions: ATCC11836, Muller-Hinton agar, 37° C., 20 hours
In short: as §1

[21] = tested on: Shigella sonnei ATCC 11060; assay: as above; type: cell-based; conditions: ATCC11060, Muller-Hinton agar, 37° C., 20 hours
In short: as §1

[22] = tested on: Staphylococcus aureus ATCC 6638p; assay: as above; type: cell-based; conditions: ATCC6638P, 20 h
In short: as §1

[23] = tested on: Staphylococcus epidermidis ATCC 10537; assay: as above; type: cell-based; conditions: ATCC10537, Muller-Hinton agar, 37° C., 20 hours
In short: as §1

[24] = tested on: Streptococcus faecalis ATCC 29212; assay: as above; type: cell-based; conditions: Enterococcus faecalis, ATCC29212, Muller-Hinton agar, 37° C., 20 hours
In short: as §1

[25] = acute toxicity test, intravenous; conditions: mouse, in vivo, ICR mice, observed for 14 days
Text: The results are shown in the last row of Table 2.

[26] = in vivo absorbency test (plasma concentration, pharmacokinetic parameters); parameters: species or system SD rats (male); conditions: rat, iv, 20 mg/kg, rats; for half-life / concentration at 1 min / concentration at 2.5 min / concentration at 5 min / concentration at 10 min / concentration at 20 min / concentration at 40 min / concentration at 1 h / concentration at 2 h / concentration at 3 h / AUC: plasma; for half-life / AUC: Two-Compartment Model; for concentration at 1 min / concentration at 2.5 min / concentration at 5 min / concentration at 10 min / concentration at 20 min / concentration at 40 min / concentration at 1 h / concentration at 2 h / concentration at 3 h: read-out: Plasma Conc.; for concentration at 1 h: 60 min; for concentration at 2 h: 120 min; for concentration at 3 h: 180 min; for AUC: read-out: ACU (converted); for dose excreted: urine, read-out: Urinary recovery
Description: In addition to the in vitro tests described above, in vivo absorbency tests for the two selected compounds of formulas (I-S-1) and (I-R-1), along with Ceftadizime, were carried out by administering intravenously, in a dose of 20 mg/kg, each of these two compounds into SD rats (male) weighing 220 to 340 g; […], which were analyzed by employing the bio-assay or agar well method. About 10 to 15 rats were used for each of the compounds.
Notes: (1) Two-Compartment Model
(3) Tested Animal: Rats(male; 220-340 g)

Row | Structure (SMILES) | MIC (ATCC 12228) [µg/mL] | MIC [1] [µg/mL] | MIC [2] [µg/mL] | MIC [3] [µg/mL] | MIC [4] [µg/mL] | MIC [5] [µg/mL] | MIC [6] [µg/mL] | MIC [7] [µg/mL] | MIC [8] [µg/mL] | MIC [9] [µg/mL] | MIC [10] [µg/mL] | MIC [11] [ng/mL] | MIC [12] [µg/mL] | MIC [13] [µg/mL] | MIC [14] [ng/mL] | MIC [15] [µg/mL] | MIC [16] [µg/mL] | MIC [17] [µg/mL] | MIC [18] [µg/mL] | MIC [19] [µg/mL] | further results
1 | C[C@@H](O/N=C(\C(=O)NC1C(=O)N2C(C(=O)[O-])=C(CSc3nc(N)cc(N)[n+]3N)CS[C@H]12)c1csc(N)n1)C(=O)O (stereo partly drawn) [I-R-1, 7-[(Z)-2-(2-aminothiazol-4-yl)-2-[(R)-1-carboxyeth-1-oxyimino]acetamido]-3-[(1,4,6-triaminopyrimidinium-2-yl)thiomethyl]-3-cephem-4-carboxylate] | 2 (≈ 3.28 µM) | 2 (≈ 3.28 µM) | 128 (≈ 210 µM) | 0.5 (≈ 0.819 µM) | 0.031 (≈ 0.0508 µM) | 0.5 (≈ 0.819 µM) | 0.016 (≈ 0.0262 µM) | 0.031 (≈ 0.0508 µM) | 0.031 (≈ 0.0508 µM) | 0.031 (≈ 0.0508 µM) | 1 (≈ 1.64 µM) | ≤ 8 | 0.031 (≈ 0.0508 µM) | 0.031 (≈ 0.0508 µM) | ≤ 8 | 0.5 (≈ 0.819 µM) | 2 (≈ 3.28 µM) | 1 (≈ 1.64 µM) | 0.063 (≈ 0.103 µM) | 0.031 (≈ 0.0508 µM) | MIC [20]: ≤ 0.008 µg/mL; MIC [21]: 0.016 µg/mL (≈ 0.0262 µM); MIC [22]: 8 µg/mL (≈ 13.1 µM); MIC [23]: 4 µg/mL (≈ 6.55 µM); MIC [24]: > 128 µg/mL; LD50 at 336 h [25]: > 5000 mg/kg; half-life ([26]; read-out: T1/1(β)): 30 min; half-life ([26]; read-out: T1/2(α)): 4.7 min; concentration at 1 min [26]: 170 µg/mL; concentration at 2.5 min [26]: 102 µg/mL; concentration at 5 min [26]: 76.9 µg/mL; concentration at 10 min [26]: 57 µg/mL; concentration at 20 min [26]: 39100 ng/mL; concentration at 40 min [26]: 17700 ng/mL; concentration at 1 h [26]: 10100 ng/mL; concentration at 2 h [26]: 2500 ng/mL; concentration at 3 h [26]: 700 ng/mL; AUC [26]: 45800 ng·h/mL; dose excreted [26]: 91%
2 | C[C@H](O/N=C(\C(=O)NC1C(=O)N2C(C(=O)[O-])=C(CSc3nc(N)cc(N)[n+]3N)CS[C@H]12)c1csc(N)n1)C(=O)O (stereo partly drawn) [I-S-1, 7-[(Z)-2-(2-aminothiazol-4-yl)-2-[(S)-1-carboxyeth-1-oxyimino]acetamido]-3-[(1,4,6-triaminopyrimidinium-2-yl)thiomethyl]-3-cephem-4-carboxylate] | 2 (≈ 3.28 µM) | 2 (≈ 3.28 µM) | 32 (≈ 52.4 µM) | 0.13 (≈ 0.213 µM) | 0.031 (≈ 0.0508 µM) | 0.5 (≈ 0.819 µM) | 0.016 (≈ 0.0262 µM) | 0.031 (≈ 0.0508 µM) | 0.031 (≈ 0.0508 µM) | 0.031 (≈ 0.0508 µM) | 0.25 (≈ 0.409 µM) | ≤ 8 | 0.016 (≈ 0.0262 µM) | 0.016 (≈ 0.0262 µM) | ≤ 8 | 0.5 (≈ 0.819 µM) | 1 (≈ 1.64 µM) | 0.5 (≈ 0.819 µM) | 0.063 (≈ 0.103 µM) | 0.031 (≈ 0.0508 µM) | MIC [20]: 0.016 µg/mL (≈ 0.0262 µM); MIC [21]: 0.031 µg/mL (≈ 0.0508 µM); MIC [22]: 4 µg/mL (≈ 6.55 µM); MIC [23]: 2 µg/mL (≈ 3.28 µM); MIC [24]: > 128 µg/mL; LD50 at 336 h [25]: > 5000 mg/kg; half-life ([26]; read-out: T1/1(β)): 37.5 min; half-life ([26]; read-out: T1/2(α)): 7.6 min; concentration at 1 min [26]: 147 µg/mL; concentration at 2.5 min [26]: 102 µg/mL; concentration at 5 min [26]: 72.6 µg/mL; concentration at 10 min [26]: 57.3 µg/mL; concentration at 20 min [26]: 37000 ng/mL; concentration at 40 min [26]: 19600 ng/mL; concentration at 1 h [26]: 11200 ng/mL; concentration at 2 h [26]: 3100 ng/mL; concentration at 3 h [26]: 1500 ng/mL; AUC [26]: 47700 ng·h/mL; dose excreted [26]: 93%
